Test results taken from patent US20240409534A1, “CRYSTAL FORM OF METHYLPYRAZOLE-SUBSTITUTED PYRIDOIMIDAZOLE COMPOUND AND PREPARATION METHOD THEREFOR” (priority 2021, published 2024).

Legend:
[1] = Hygroscopicity study by dynamic vapor sorption (DVS); type: physicochemical; conditions: 25° C. and 80% RH
Description: Instrument model: SMS Intrinsic Dynamic Vapor Sorption Analyzer
Test conditions: Taking a sample (10 to 30 mg) and placing in a DVS sample dish for testing.
Detailed DVS parameters are as follows: • Temperature: 25° C. • Equilibration: dm/dt=0.002%/min (minimum: 10 min, maximum: 180 min) RH range: 0% RH to 95% RH to 0% RH • RH gradient: 10% (90% RH to 0% RH to 90% RH) • 5% (95% RH to 90% RH and 90% RH to 95% RH)

[2] = test system: NCI-H1581 cells with high expression of FGFR1; assay: Cell proliferation inhibition, CellTiter-Glo, NCI-H1581; type: cell-based; conditions: Homo sapiens, 72 h, NCI-H1581, cultured for 3 days
Excerpt: (§1) The compounds of the present disclosure can target and inhibit FGFR and VEGFR pathways, and inhibit tumor cell growth by inhibiting VEGF/VEGFR and FGF/FGFR signaling pathways. In this experiment, human non-small cell lung cancer cells NCI-H1581 with high expression of FGFR1, gastric cancer cells SNU-16 with high expression of FGFR2, and human bladder cancer cells RT112/84 with high expression of FGFR3 were selected. In this experiment, the inhibitory effect of compounds on cell proliferation was investigated by detecting the effect of the compounds of the present disclosure on the cell viability in vitro in the tumor cell lines NCI-H1581, SNU-16 and RT-112/84.
(§2) Regular passage, and cells in logarithmic growth phase were taken for plating.
(§3) • (1) Cells were stained with trypan blue and viable cells were counted. • (2) The cell concentration was adjusted to an appropriate concentration.
(§4) • (3) 90 μL of cell suspension per well was added to a culture plate, and cell-free culture solution was added to the blank control well. • (4) The plate was cultured overnight in a 37° C., 5% CO2 incubator with 100% relative humidity.
(§5) • (1) Preparation of 10× compound working solution: 78 μL of cell culture medium was added to a V-bottom 96-well plate, and 2 μL of compound was pipetted from a 400× compound storage plate and added to the cell culture medium of the 96-well plate. […]

[3] = test system: gastric cancer cells SNU-16 with high expression of FGFR2; assay: Cell proliferation inhibition, CellTiter-Glo, SNU-16; type: cell-based; conditions: Homo sapiens, 72 h, SNU-16, cultured for 3 days
Excerpt: as §1, §2, §3, §4, §5

Ba/F3-TEL-FLT1 (VEGFR1) = assay: In vitro proliferation of BaF3 cell line, Ba/F3-TEL-FLT1; type: cell-based
Description: (§6) The mother solution was prepared into a total of 9 concentration gradients (10.0000 mM, 2.5000 mM, 0.6250 mM, 0.1563 mM, 0.0391 mM, 0.0098 mM, 0.0024 mM, 0.0006 mM and 0.0002 mM) in a 4-fold dilution and stored in a 96-well plate (Beaver, Suzhou), while the same volume of DMSO solvent was used as a negative control. • 1. Cell suspension in logarithmic growth phase was taken and inoculated in a white 96-well cell culture plate (Corning 3917, NY, USA) with a volume of 95 μL per well (2000 cells/well). • 2. Diluted medium-compound mixture was added in a volume of 5 μL per well, respectively, and the final concentration of DMSO in Ba/F3-TEL-FLT1 (VEGFR1), Ba/F3-TEL-FLT4 (VEGFR3) and Ba/F3-TEL-VEGFR2 cells was 0.1%.
(§7) • 3. The plate was incubated in a 37° C., 5% CO2 incubator for 72 h. • 4. The proliferation inhibitory activity and data analysis of the compound by CellTiter-Glo method were the same as in Experimental embodiment 1.

Ba/F3-TEL-VEGFR2 = assay: In vitro proliferation of BaF3 cell line, Ba/F3-TEL-VEGFR2; type: cell-based; conditions: Ba/F3-TEL-VEGFR2, 72 h
Description: as §6, §7

## CS(=O)(=O)O.Cn1cc(-c2ccn3c(-c4cc(NS(C)(=O)=O)nc(-c5ccc(F)cc5F)c4)cnc3c2)cn1
[1]
  hygroscopic weight gain ΔW: 1.708%
[2]
  IC50: 117 nM
[3]
  IC50: 44.5 nM
Ba/F3-TEL-FLT1 (VEGFR1); 72 h
  Maximum inhibition: 99.34%
  Minimum inhibition: −12.05%
Ba/F3-TEL-FLT1 (VEGFR1); Mus musculus, BaF3, 72 h, read-out: Relative IC50
  IC50: 46 nM
Ba/F3-TEL-VEGFR2
  Maximum inhibition: 99.99%
  Minimum inhibition: 8.23%
Ba/F3-TEL-VEGFR2; Mus musculus, BaF3, read-out: Relative IC50
  IC50: ~9.7 nM
